# Reference: US20250257041A1, “INDUCERS OF INTEGRATED STRESS RESPONSE TO TREAT CANCER” (The Board of Regents of The University of Texas System, priority 2022, published 2025)
# Where two headings read alike, the source gives them in different places.
# Tested on: HCT116 WT
# Assay: Proliferation of HCT116 colorectal cell line, Cell TiterGlo
# Assay type: cell-based, human
# Conditions: for HCT116 IC50 (uM) HCT116 WT: wild type HCT116
# Method: Briefly, compounds were tested for their effect on proliferation of HCT116 colorectal cell lines using Cell TiterGlo (Promega). Each compound was tested in a 10-point dose response experiment in triplicate. Multiple values in the column titled HCT116 WT reflect separate independent experiments. The three columns titled “HCT116 WT (repeat)”, “HCT116-CGN2KO” and “HCT116 WT+ISRIB” provide data for selected compounds that were tested simultaneously under three conditions. The HCT116 WT column lists IC50 against the wild type HCT116 colorectal cancer cell line. The HCT116-CGN2KO lists IC50 data for cells in which one component of the integrated stress response, GCN2, has been knocked out using CRISPR technology.
# [1] = Homo sapiens, HCT-116, wild type HCT116, 10-point dose response in triplicate, multiple values = separate independent experiments, read-out: HCT116 IC50 (uM) HCT116 WT
# [2] = 10-point dose response in triplicate, multiple values = separate independent experiments
SMILES,IC50 [1] [µM],further results
"Cn1nc(-c2ccc(NC(=O)c3ccccc3C3CCN(C(=O)OC(C)(C)C)CC3)cc2)cc1NC(=O)c1ccccc1 [SW394764, tert-butyl4-(2-((4-(5-benzamido-1-methyl-1H-pyrazol-3-yl)phenyl)carbamoyl)phenyl)piperidine-1-carboxylate]",0.3,–
"Cc1ncccc1C(=O)Nc1ccc(-c2cc(NC(=O)c3cccc(N(C)C)c3)n(C)n2)cc1 [SW394871, N-(4-(5-(3-(Dimethylamino)benzamido)-1-methyl-1H-pyrazol-3-yl)phenyl)-2-methylnicotine-amide]",0.01,–
"Cc1ncccc1C(=O)Nc1ccc(-c2cc(NC(=O)C3CCC(F)(F)CC3)n(C)n2)c(F)c1 [SW394696, N-(4-(5-(4,4-Difluorocyclohexane-1-carboxamido)-1-methyl-1H-pyrazol-3-yl)-3-fluorophen-yl)-2-methylnicotinamide]",0.09,–
"C#Cc1cccc(C(=O)Nc2cc(-c3ccc(NC(=O)c4ccccc4COCCNC(=O)CCC4(C)N=N4)cc3)nn2C)c1 [SW394741, N-(4-(5-(3-ethynylbenzamido)-1-methyl-1H-pyrazol-3-yl)phenyl)-2-((2-(3-(3-methyl-3H-diazirin-3-yl)propanamido)ethoxy)methyl)benzamide]",0.17,–
"Cn1nc(-c2ccc(NC(=O)c3ccccc3Cl)cc2)cc1NC(=O)N1CCOCC1 [SW394873, N-(3-(4-(2-Chlorobenzamido)phenyl)-1-methyl-1H-pyrazol-5-yl)morpholine-4-carboxamide]",0.29,–
"Cn1nc(-c2ccc(NC(=O)c3cccnc3C(F)(F)F)cc2)cc1NC(=O)c1ccccc1Cl [SW394631, N-(4-(5-(2-Chlorobenzamido)-1-methyl-1H-pyrazol-3-yl)phenyl)-2-(trifluoromethyl)nicotinamide]",0.022,–
"Cn1nc(-c2ccc(NC(=O)c3ccccc3COCc3cn(CCOCCNC(=S)Nc4ccc(-c5c6ccc(=O)cc-6oc6cc(O)ccc56)c(C(=O)O)c4)nn3)cc2)cc1NC(=O)c1ccccc1 [SW393345, 5-(3-(2-(2-(4-(((2-((4-(5-benzamido-1-methyl-1H-pyrazol-3-yl)phenyl)carbamoyl)benzyl)oxy)methyl)-1H-1,2,3-triazol-1-yl)ethoxy)ethyl)thioureido)-2-(6-hydroxy-3-oxo-3H-xanthen-9-yl)benzoic acid]",11.4,–
"O=C(Nc1cccc(-c2ccc(NC(=O)c3ccccc3Cl)cc2)n1)c1ccccc1 [SW394535, N-(4-(6-benzamidopyridin-2-yl)phenyl)-2-chlorobenzamide]",–,HCT116 IC50 (uM) HCT116 WT [2]: inactive
"Cn1nc(-c2ccc(NC(=O)c3ccccc3Cl)cc2)cc1NC(=O)c1cccc(NS(C)(=O)=O)c1 [SW394895-1, 2-chloro-N-(4-(1-methyl-5-(3-(methylsulfonamido)benzamido)-1H-pyrazol-3-yl)phenyl)benzamide]",0.03,–
"Cc1ncccc1C(=O)Nc1ccc(-c2cc(N(C)C(=O)c3ccccc3)n(C)n2)cc1 [SW394880-1, 2-methyl-N-(4-(1-methyl-5-(N-methylbenzamido)-1H-pyrazol-3-yl)phenyl)nicotinamide]",1.04,–
"Cn1nc(-c2ccc(NC(=O)c3ccccc3Cl)cc2)cc1NC(=O)c1cccc(C(=O)O)c1 [SW394800, 3-((3-(4-(2-Chlorobenzamido)phenyl)-1-methyl-1H-pyrazol-5-yl)carbamoyl)benzoic acid]",–,HCT116 IC50 (uM) HCT116 WT [2]: inactive
"Cn1nc(-c2ccc(NC(=O)c3ccccc3Cl)cc2)cc1NC(=O)c1cccc(CCCNC(=O)CCCC[C@H]2SC[C@H]3NC(=O)N[C@H]32)c1 [SW394692, 2-chloro-N-(4-(1-methyl-5-(3-(3-(5-((3aR,4R,6aS)-2-oxohexahydro-1H-thieno[3,4-d]142 imidazole-4-yl)pentanamido)propyl)benzamido)-1H-pyrazol-3-yl)phenyl)benzamide]",0.5,–
"O=C(Nc1ccc(-c2nnc(NC(=O)c3ccccc3Cl)o2)cc1)c1ccccc1Cl [SW394597, 2-chloro-N-(4-(5-(2-chlorobenzamido)-1,3,4-oxadiazol-2-yl)phenyl)benzamide]",–,HCT116 IC50 (uM) HCT116 WT [2]: inactive
"Cc1ncccc1C(=O)Nc1ccc(-c2cc(NC(=O)c3ccccc3Cl)n(C)n2)cc1 [SW394630, N-(4-(5-(2-Chlorobenzamido)-1-methyl-1H-pyrazol-3-yl)phenyl)-2-methylnicotinamide]",0.014,–
"O=C(Nc1ccc(-c2cc(NC(=O)c3ccccc3)on2)cc1)c1ccccc1 [SW394572, N-(4-(5-benzamidoisoxazol-3-yl)phenyl)benzamide]",5.8,–
"CC(=O)N1CCN(C(=O)Nc2cc(-c3ccc(NC(=O)c4ccccc4Cl)cc3)nn2C)CC1 [SW394877, 4-Acetyl-N-(3-(4-(2-chlorobenzamido)phenyl)-1-methyl-1H-pyrazol-5-yl)piperazine-1-carb-oxamide]",–,HCT116 IC50 (uM) HCT116 WT [2]: inactive
"CSc1cccc(C(=O)Nc2cc(-c3ccc(NC(=O)c4ccccc4)cc3)nn2C)c1 [SW389160, N-(3-(4-Benzamidophenyl)-1-methyl-1H-pyrazol-5-yl)-3-(methylthio)benzamide]",–,"IC50 (Homo sapiens, HCT-116, read-out: HCT116 IC50 (uM) HCT116 WT): 0.226 µM; IC50 (Homo sapiens, HCT-116, read-out: HCT116 IC50 (uM) HCT116 WT (repeat)): 0.29 µM; IC50 (read-out: HCT116 IC50 (uM) HCT116 WT + ISRIB, wild type HCT116, compound plus 10 nM of ISRIB): 2.48 µM"
"Cn1nc(-c2ccc(NC(=O)N3CCCC3)cc2)cc1NC(=O)c1ccccc1 [SW394893-1, N-(4-(5-benzamido-1-methyl-1H-pyrazol-3-yl)phenyl)pyrrolidine-1-carboxamide]",> 5,–
"Cn1nc(-c2ccc(NC(=O)c3ccccc3Cl)cc2)cc1NC(=O)N1CCCC1 [SW394876, N-(3-(4-(2-Chlorobenzamido)phenyl)-1-methyl-1H-pyrazol-5-yl)pyrrolidine-1-carboxamide]",0.19,–
"Cn1nc(-c2ccc(NC(=O)c3ccccc3Cl)cc2)cc1NC(=O)C1CCOCC1 [SW394547, N-(3-(4-(2-Chlorobenzamido)phenyl)-1-methyl-1H-pyrazol-5-yl)tetrahydro-2H-pyran-4-car-boxamide]",0.05,–
"Cc1ncccc1C(=O)Nc1ccc(-c2cc(NC(=O)c3ccccc3F)n(C)n2)cc1F [SW394745, N-(2-Fluoro-4-(5-(2-fluorobenzamido)-1-methyl-1H-pyrazol-3-yl)phenyl)-2-methylnicotinamide]",21.7,–
"Cn1nc(-c2ccc(NC(=O)c3cc(NC(=O)OC(C)(C)C)ccc3Cl)cc2)cc1NC(=O)c1ccccc1 [SW394967, tert-butyl (3-((4-(5-benzamido-1-methyl-1H-pyrazol-3-yl)phenyl)carbamoyl)-4-chlorophenyl)carbamate]",0.541,–
"Cn1nc(-c2ccc(NC(=O)C3CCCCCC3)cc2)cc1NC(=O)c1ccccc1 [SW394515, N-(4-(5-Benzamido-1-methyl-1H-pyrazol-3-yl)phenyl)cycloheptanecarboxamide]",0.044,–
"Cn1nc(-c2ccc(NC(=O)C3CCC3)cc2)cc1NC(=O)c1ccccc1 [SW394491, N-(3-(4-(Cyclobutanecarboxamido)phenyl)-1-methyl-1H-pyrazol-5-yl)benzamide]",12,–
"Cn1nc(-c2ccc(NC(=O)C3CCCO3)cc2)cc1NC(=O)c1ccccc1 (single isomer, unassigned) [SW394516 (isomer 1)]",–,HCT116 IC50 (uM) HCT116 WT [2]: inactive

# The next lines start with results.
IC50 [1] [µM],SMILES,further results
0.03,"Cc1ccccc1C(=O)Nc1cc(-c2ccc(NC(=O)c3ccccc3Cl)cc2)nn1C [SW393217, 2-chloro-N-(4-(1-methyl-5-(2-methylbenzamido)-1H-pyrazol-3-yl)phenyl)benzamide]",–
2.03,"COc1ccc(C(=O)Nc2cc(-c3ccc(NC(=O)c4ccccc4)cc3)nn2C)cc1 [SW388718, N-(3-(4-Benzamidophenyl)-1-methyl-1H-pyrazol-5-yl)-4-methoxybenzamide]",–
0.11,"Cn1nc(-c2ccc(NC(=O)c3ccccc3Cl)cc2)cc1NC(=O)Nc1ccccc1 [SW394872, 2-Chloro-N-(4-(1-methyl-5-(3-phenylureido)-1H-pyrazol-3-yl)phenyl)benzamide]",–
0.13,"Cn1nc(-c2ccc(NC(=O)c3ccccc3-c3ccccc3)cc2)cc1NC(=O)c1ccccc1 [SW393270, N-(4-(5-benzamido-1-methyl-1H-pyrazol-3-yl)phenyl)-[1,1′-biphenyl]-2-carboxamide]",–
0.055,"Cn1nc(-c2ccc(NC(=O)c3ccccc3Cl)cc2)cc1NC(=O)c1cccc(CN)c1 [SW394966, N-(4-(5-(3-(aminomethyl)benzamido)-1-methyl-1H-pyrazol-3-yl)phenyl)-2-chlorobenzamide]",–
0.6,"Cn1nc(-c2ccc(NC(=O)c3ccccc3Cl)cc2)cc1NC(=O)c1ccc(C(=O)c2ccccc2)cc1 [SW393188, N-(4-(5-(4-benzoylbenzamido)-1-methyl-1H-pyrazol-3-yl)phenyl)-2-chlorobenzamide]",–
1.13,"Cn1nc(-c2ccc(NC(=O)c3ccccc3-c3ccc([N+](=O)[O-])cc3)cc2)cc1NC(=O)c1ccccc1 [SW394548, N-(4-(5-Benzamido-1-methyl-1H-pyrazol-3-yl)phenyl)-4′-nitro-[1,1′-biphenyl]-2-carboxam-ide]",–
19,"COc1ccc(C(=O)Nc2ccc(-c3cc(NC(=O)c4ccccc4)n(C)n3)cc2)cc1 [SW388716, N-(4-(5-Benzamido-1-methyl-1H-pyrazol-3-yl)phenyl)-4-methoxybenzamide]",–
0.15,"Cn1nc(-c2ccc(NC(=O)c3ccccc3CN3CCOCC3)cc2)cc1NC(=O)c1ccccc1 [SW393298, N-(4-(5-Benzamido-1-methyl-1H-pyrazol-3-yl)phenyl)-2-(morpholinomethyl)benzamide]",–
0.01,"COC(=O)c1cccc(C(=O)Nc2cc(-c3ccc(NC(=O)c4ccccc4Cl)cc3)nn2C)c1 [SW394878, Methyl 3-((3-(4-(2-chlorobenzamido)phenyl)-1-methyl-1H-pyrazol-5-yl)carbamoyl)benzoate]",–
